Key:
Format in all cases: cell-based
[1] = target: T1, human prostanoid FP receptor (Homo sapiens, UniProt P43088); assay: FLIPR Ca2+ signaling antagonist assay, FP receptor stable cell line; details: HEK-293 EBNA stable cell line; standard agonist 17-phenyl-PGF2α; NA = inactive (no antagonism or Kb 10,000 nM); PAg, Ag not defined
T1 construct: expressed in transfected cells
Procedure: (§1) The above compounds were tested for PG antagonist activity as follows using human recombinant prostanoid receptor (DP1, EP1-4, FP, IP and TP) stable cell lines:
(§2) In order to measure the response of Gs and Gi coupled prostanoid receptors as a Ca^2+ signal, chimeric G protein cDNAs were used. Stable cell lines over-expressing human prostanoid DP1, EP1-4, FP, IP, and TP receptors were established as follows:
(§3) Briefly, human prostanoid DP1, EP2, and EP4 receptor cDNAs were co-transfected with chimeric Gqs cDNA containing a haemagglutanin (HA) epitope; human prostanoid EP3 receptors were co-transfected with chimeric Gqi-HA; human EP1, FP, IP, and TP receptor cDNAs were expressed with no exogenous G-proteins. Gqs and Gqi chimeric cDNAs (Molecular Devices, Sunnyvale, Calif., U.S.A.), as well as cDNAs of prostanoid receptors, were cloned into a pCEP4 vector with a hygromycin B selection marker. Transfection into HEK-293 EBNA (Epstein-Barr virus nuclear antigen) cells was achieved by the FuGENE 6 transfection Reagent (Roche Applied Science, Indianapolis, Ind., USA). Stable transfectants were selected according to hygromycin resistance. Because Gqs and Gqi contained an HA epitope, G-protein expression was detected by Western blotting analysis using anti-mouse HA monoclonal antibody and horseradish peroxidase (HRP)-conjugated secondary antibody, while functional expression of prostanoid receptors was detected by FLIPR screening (Matias et al., 2004). These stable cell lines were validated using previously published antagonists at 10 μM against serial dilutions of standard agonists by FLIPR functional assays for Ca^2+ Signaling (as described below).
(§4) Ca^2+ signaling studies were performed using a FLIPR TETRA system (Molecular Devices, Sunnyvale, Calif., USA) in the 384-format. This is a high-throughput instrument for cell-based assays to monitor Ca^2+ signaling associated with GPCRs and ion channels. Cells were seeded at a density of 5×10^4 cells/well in BioCoat poly-D-lysine coated, black wall, clear bottom 384-well plates (BD Biosciences, Franklin lakes, NJ, USA) and allowed to attach overnight in an incubator at 37° C. The cells were then washed twice with HBSS-HEPES buffer (Hanks' balanced salt solution without bicarbonate and phenol red, 20 mM HEPES, pH 7.4) using an ELx405 Select CW Microplate Washer (BioTek, Winooski, Vt., USA). After 60 min of dye-loading in the dark using the Ca^2+-sensitive dye Fluo-4AM (Invitrogen, Carlsbad, Calif., USA), at a final concentration of 2×10^−6M, the plates were washed 4 times with HBSS-HEPES buffer to remove excess dye and leaving 50 μl of buffer in each well. The plates were then placed in the FLIPR TETRA instrument and allowed to equilibrate at 37° C. AGN-211377 was added in a 25 μl volume to each well to give final concentrations of 0.1 μM, 0.3 μM, 1 μM, 3 μM, 10 μM, and 30 μM; or 0.067 μM, 0.1 μM, 0.2 μM, 0.3 μM, 0.67 μM, and 1 μM for cells over-expressing TP receptors. After 4.5 minutes, a 7-point serial dilution of the standard agonist for the corresponding receptor, in a 25 μl volume was injected at the final concentrations from 10^−11M to 10^−5M in 10-fold serial dilution increments for cells expressing human recombinant DP1, EP1, EP2, EP3, EP4, FP, and IP receptors. The dose range for the standard agonist for human recombinant TP receptors was from 10^−12 M to 10^−6 M. HBSS-HEPES buffer was used as the negative control for the standard agonists. Cells were excited with LED (light emitting diode) excitation at 470-495 nm and emission was measured through an emission filter at 515-575 nm. Assay plates were read for 3.5 minutes using the FLIPR^TETRA. The peak increase in fluorescence intensity was recorded for each well. On each plate, negative controls, dose response of positive controls, and co-treatments of antagonist-agonist for each dose were in triplicates.
(§5) Standard agonists were as follows: DP=BW 245C, EP1-EP4=PGE2, FP=17-phenyl-PGF2α, IP=Cicaprost, and TP=U-46619. […]

[2] = target: T2, human prostanoid DP1 receptor (Homo sapiens, UniProt Q13258); assay: FLIPR Ca2+ signaling antagonist assay, DP1 receptor stable cell line; details: HEK-293 EBNA stable cell line; standard agonist BW 245C; NA = inactive (no antagonism or Kb 10,000 nM); PAg, Ag not defined
T2 construct: expressed in transfected cells
T2 sequence (Q13258 1-359): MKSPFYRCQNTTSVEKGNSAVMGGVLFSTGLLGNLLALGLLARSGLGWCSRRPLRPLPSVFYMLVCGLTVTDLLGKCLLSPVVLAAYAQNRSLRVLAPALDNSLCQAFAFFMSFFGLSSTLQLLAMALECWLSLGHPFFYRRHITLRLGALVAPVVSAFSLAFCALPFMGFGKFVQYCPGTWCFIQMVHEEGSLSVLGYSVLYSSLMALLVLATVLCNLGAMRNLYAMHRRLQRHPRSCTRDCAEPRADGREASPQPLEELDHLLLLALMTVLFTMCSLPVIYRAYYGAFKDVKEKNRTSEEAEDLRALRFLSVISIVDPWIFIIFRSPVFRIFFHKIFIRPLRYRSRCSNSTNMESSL
Procedure: as §1, §2, §3, §4, §5

[3] = target: T3, human prostanoid EP1 receptor (Homo sapiens, UniProt P34995); assay: FLIPR Ca2+ signaling antagonist assay, EP1 receptor stable cell line; details: HEK-293 EBNA stable cell line; standard agonist PGE2; NA = inactive (no antagonism or Kb 10,000 nM); PAg, Ag not defined
T3 construct: expressed in transfected cells
T3 sequence (P34995 1-402): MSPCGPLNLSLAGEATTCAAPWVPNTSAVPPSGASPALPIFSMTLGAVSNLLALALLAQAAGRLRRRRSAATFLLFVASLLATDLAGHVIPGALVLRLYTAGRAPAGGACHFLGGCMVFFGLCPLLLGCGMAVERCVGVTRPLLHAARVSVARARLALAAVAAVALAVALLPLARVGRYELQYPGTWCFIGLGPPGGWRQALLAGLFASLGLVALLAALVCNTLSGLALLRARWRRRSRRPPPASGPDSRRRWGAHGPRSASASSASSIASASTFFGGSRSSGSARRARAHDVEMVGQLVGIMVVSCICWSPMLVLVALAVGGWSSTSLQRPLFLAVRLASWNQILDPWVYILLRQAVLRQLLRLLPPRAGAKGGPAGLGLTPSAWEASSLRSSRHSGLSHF
Procedure: as §1, §2, §3, §4, §5

[4] = target: T4, human prostanoid EP2 receptor (Homo sapiens, UniProt P43116); assay: FLIPR Ca2+ signaling antagonist assay, EP2 receptor stable cell line; details: HEK-293 EBNA stable cell line; standard agonist PGE2; NA = inactive (no antagonism or Kb 10,000 nM); PAg, Ag not defined
T4 construct: expressed in transfected cells
T4 sequence (P43116 whole entry): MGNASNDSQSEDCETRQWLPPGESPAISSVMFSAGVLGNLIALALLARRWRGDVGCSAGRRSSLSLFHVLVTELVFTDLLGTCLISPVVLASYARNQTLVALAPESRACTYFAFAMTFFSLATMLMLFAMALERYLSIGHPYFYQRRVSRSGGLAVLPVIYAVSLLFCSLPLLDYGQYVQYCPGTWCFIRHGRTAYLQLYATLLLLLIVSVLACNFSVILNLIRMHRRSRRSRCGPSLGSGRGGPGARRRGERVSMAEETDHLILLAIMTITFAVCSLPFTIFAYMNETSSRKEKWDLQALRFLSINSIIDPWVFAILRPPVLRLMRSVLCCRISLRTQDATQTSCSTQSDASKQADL
Procedure: as §1, §2, §3, §4, §5

[5] = target: T5, human prostanoid IP receptor (Homo sapiens, UniProt P43119); assay: FLIPR Ca2+ signaling antagonist assay, IP receptor stable cell line; details: HEK-293 EBNA stable cell line; standard agonist Cicaprost; NA = inactive (no antagonism or Kb 10,000 nM); PAg, Ag not defined
T5 construct: expressed in transfected cells
T5 sequence (P43119 whole entry): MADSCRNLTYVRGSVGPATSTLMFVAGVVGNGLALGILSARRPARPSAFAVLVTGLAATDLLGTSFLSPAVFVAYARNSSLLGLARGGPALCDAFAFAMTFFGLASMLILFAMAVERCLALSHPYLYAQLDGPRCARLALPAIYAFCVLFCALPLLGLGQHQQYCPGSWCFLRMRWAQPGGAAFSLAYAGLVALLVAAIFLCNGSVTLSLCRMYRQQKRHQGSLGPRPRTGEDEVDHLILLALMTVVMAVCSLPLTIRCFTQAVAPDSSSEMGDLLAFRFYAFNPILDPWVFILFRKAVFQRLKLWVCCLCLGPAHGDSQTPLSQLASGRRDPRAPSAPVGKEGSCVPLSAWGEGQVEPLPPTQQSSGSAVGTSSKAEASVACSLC
Procedure: as §1, §2, §3, §4, §5

[6] = target: T6, human prostanoid TP receptor (Homo sapiens, UniProt P21731); assay: FLIPR Ca2+ signaling antagonist assay, TP receptor stable cell line; details: HEK-293 EBNA stable cell line; standard agonist U-46619; NA = inactive (no antagonism or Kb 10,000 nM); PAg, Ag not defined
T6 construct: expressed in transfected cells
T6 sequence (P21731 1-343): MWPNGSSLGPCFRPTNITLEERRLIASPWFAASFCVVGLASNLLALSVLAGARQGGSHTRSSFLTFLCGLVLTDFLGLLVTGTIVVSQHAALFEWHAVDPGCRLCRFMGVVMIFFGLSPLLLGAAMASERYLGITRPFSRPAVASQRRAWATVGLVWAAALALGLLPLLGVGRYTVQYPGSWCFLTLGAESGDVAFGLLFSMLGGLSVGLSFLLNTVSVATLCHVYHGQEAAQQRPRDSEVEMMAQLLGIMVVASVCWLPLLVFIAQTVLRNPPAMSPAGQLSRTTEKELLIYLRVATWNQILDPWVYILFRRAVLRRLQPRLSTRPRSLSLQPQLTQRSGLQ
Procedure: as §1, §2, §3, §4, §5

[7] = target: T7, human prostanoid EP4 receptor (Homo sapiens, UniProt P35408); assay: FLIPR Ca2+ signaling antagonist assay, EP4 receptor stable cell line; details: HEK-293 EBNA stable cell line; standard agonist PGE2; NA = inactive (no antagonism or Kb 10,000 nM); PAg, Ag not defined
T7 construct: expressed in transfected cells
T7 sequence (P35408 whole entry): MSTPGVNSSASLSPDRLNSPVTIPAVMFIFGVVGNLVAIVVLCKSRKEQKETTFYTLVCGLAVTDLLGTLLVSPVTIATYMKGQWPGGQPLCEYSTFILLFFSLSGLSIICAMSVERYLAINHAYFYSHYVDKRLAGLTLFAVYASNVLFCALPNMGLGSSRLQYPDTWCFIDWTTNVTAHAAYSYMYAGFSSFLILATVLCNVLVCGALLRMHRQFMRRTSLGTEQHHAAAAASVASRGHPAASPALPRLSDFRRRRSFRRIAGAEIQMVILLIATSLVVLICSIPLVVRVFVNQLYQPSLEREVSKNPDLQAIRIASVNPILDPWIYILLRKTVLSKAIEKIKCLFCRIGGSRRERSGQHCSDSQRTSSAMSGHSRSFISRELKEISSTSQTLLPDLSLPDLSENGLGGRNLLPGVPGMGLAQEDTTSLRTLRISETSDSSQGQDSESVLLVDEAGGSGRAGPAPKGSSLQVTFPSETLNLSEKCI
Procedure: as §1, §2, §3, §4, §5

T1 sequence (P43088 whole entry): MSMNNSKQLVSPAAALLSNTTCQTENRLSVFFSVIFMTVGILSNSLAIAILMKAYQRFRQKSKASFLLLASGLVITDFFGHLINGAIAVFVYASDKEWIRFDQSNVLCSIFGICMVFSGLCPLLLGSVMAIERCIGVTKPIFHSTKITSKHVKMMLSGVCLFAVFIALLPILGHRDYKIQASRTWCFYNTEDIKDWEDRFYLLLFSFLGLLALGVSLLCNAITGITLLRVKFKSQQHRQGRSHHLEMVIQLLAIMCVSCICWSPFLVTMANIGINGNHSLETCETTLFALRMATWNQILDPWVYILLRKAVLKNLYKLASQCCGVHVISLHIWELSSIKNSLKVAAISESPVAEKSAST

Row | SMILES | Kb [1] [nM] | Kb [4] [nM] | IP (FLIPR) Kb [5] | TP (FLIPR) Kb [6] | DP1 (FLIPR) Kb [2] | EP1 (FLIPR) Kb [3] | Kb [2] [nM] | Kb [3] [nM] | Kb [7] [nM] | Kb [5] [nM] | Kb [6] [nM] | EP2 (FLIPR) Kb [4] | EP4 (FLIPR) Kb [7]
1 | Cc1cc(CCC(=O)O)nn1Cc1cc(Cl)ccc1OCc1ccc(Cl)cc1C(F)(F)F [Example 29, 3-[1-(5-Chloro-2-(4-chloro-2-trifluoromethylbenzyloxy)benzyl)-5-methyl-1H-pyrazol-3-yl]-propionic acid] | 5900 | 9800 | PAg | Ag | – | – | 790 | 70 | – | – | – | – | –
2 | Cc1cc(CCC(=O)O)nn1Cc1cc(Br)ccc1OCC(C)C [Example 16, 3-[1-(5-Bromo-2-isobutoxybenzyl)-5-methyl-1H-pyrazol-3-yl]-propionic acid] | 70 | 2700 | – | – | – | – | 200 | 14 | 1000 | – | 14 | – | –
3 | Cc1cc(CCC(=O)O)nn1Cc1cc(Cl)ccc1OC(CC(C)C)CC(C)C [Example 23, 3-[1-(5-Chloro-2-(1-isobutyl-3-methylbutoxy)benzyl)-5-methyl-1H-pyrazol-3-yl]-propionic acid] | – | – | Ag | Ag | – | – | 160 | 1500 | – | – | – | PAg | Ag
4 | CCC(CC)COc1ccc(-c2ccccc2)cc1Cn1nc(CCC(=O)O)cc1C [Example 63, 3-{1-[4-(2-Ethyl-butoxy)-biphenyl-3-ylmethyl]-5-methyl-1H-pyrazol-3-yl}-propionic acid] | 60 | – | – | PAg | – | – | 170 | 700 | 4000 | 2200 | – | – | –
5 | CCC(CC)COc1ccc(C)cc1Cn1nc(CCC(=O)O)cc1C [Example 65, 3-{1-[2-(2-Ethyl-butoxy)-5-methyl-benzyl]-5-methyl-1H-pyrazol-3-yl}-propionic acid] | 1300 | – | – | – | – | – | 550 | 150 | 100 | 2300 | 10 | – | –
6 | CCC(CC)COc1ccc(Br)cc1Cn1nc(CC(C)C(=O)O)cc1C (centres unmarked) [Example 67, 3-{1-[5-Bromo-2-(2-ethyl-butoxy)-benzyl]-5-methyl-1H-pyrazol-3-yl}-2-methyl-propionic acid] | 140 | – | – | – | – | – | 400 | 10 | 70 | 1500 | 20 | – | –
7 | CCC(C)CCOc1ccc(Br)cc1Cn1nc(CCC(=O)O)cc1C (centres unmarked) [Example 7, 3-[1-(5-Bromo-2-(3-methyl-pentyloxy)-benzyl)-5-methyl-1H-pyrazol-3-yl]-propionic acid] | 90 | – | – | – | – | – | 490 | 90 | 600 | 3500 | 2 | – | –
8 | CCC(CC)COc1ccc(C(C)(C)C)cc1Cn1nc(CCC(=O)O)cc1C [Example 49, 3-[1-[2-(2-Ethyl-butoxy)-5-tert-butyl-benzyl]-5-methyl-1H-pyrazol-3-yl]-propionic acid] | 1700 | – | – | – | – | – | 270 | 40 | 1800 | 2500 | 24 | – | –

More lines, main results first:

Row | Kb [1] [nM] | Kb [4] [nM] | IP (FLIPR) Kb [5] | TP (FLIPR) Kb [6] | DP1 (FLIPR) Kb [2] | EP1 (FLIPR) Kb [3] | SMILES | Kb [2] [nM] | Kb [3] [nM] | Kb [7] [nM] | Kb [5] [nM] | Kb [6] [nM] | EP2 (FLIPR) Kb [4] | EP4 (FLIPR) Kb [7]
9 | 200 | 8200 | – | – | PAg | – | Cc1cc(CCCCC(=O)O)nn1Cc1cc(Cl)ccc1OCC1CCCC1 [Example 41, 5-[1-(5-Chloro-2-cyclopentylmethoxybenzyl)-5-methyl-1H-pyrazol-3-yl]-pentanoic acid] | – | 350 | 1000 | 5500 | 30 | – | –
10 | 300 | – | PAg | PAg | PAg | PAg | Cc1cc(CCC(=O)O)nn1Cc1cc(Cl)ccc1OCCC1CCCC1 [Example 39, 3-[1-(5-Chloro-2-(2-cyclopentylethoxy)benzyl)-5-methyl-1H-pyrazol-3-yl]-propionic acid] | – | – | – | – | – | PAg | PAg
11 | 180 | 2500 | – | – | – | – | Cc1cc(CCC(=O)O)nn1Cc1cc(Cl)ccc1OCC(C)C [Example 42, 3-[1-(5-Chloro-2-(2-methylpropyloxy)benzyl)-5-methyl-1H-pyrazol-3-yl]-propionic acid] | 260 | 30 | 1600 | – | 40 | – | –
12 | 200 | – | Ag | Ag | – | Ag | Cc1cc(CCC(=O)O)nn1Cc1cc(Cl)ccc1OCC1CCCCC1 [Example 34, 3-[1-(5-Chloro-2-(cyclohexyl-methoxy)benzyl)-5-methyl-1H-pyrazol-3-yl]-propionic acid] | 240 | – | 2500 | – | – | – | –
13 | 3500 | – | – | – | – | – | Cc1cc(CCC(=O)O)nn1Cc1cc(Cl)ccc1CCC1CCCC1 [Example 74] | 600 | 1300 | 3300 | 2200 | 190 | – | –
